Columns and labels:
[1] = molecular target: cannabinoid G-protein coupled receptor CB2 (Homo sapiens, UniProt P34972); settings: cited from earlier work
CB1 receptor = CB1 receptor (Homo sapiens, UniProt P21554); settings: cited from earlier work
[2] = Solubility of the cannabinol starting material in various solvents
[3] = solid, ambient conditions / storage
Protocol: PXRD diffractograms were acquired on a PANalytical X'Pert Pro diffractometer using Ni-filtered Cu Ka (45 kV/40 mA) radiation and a step size of 0.03° 2θ and X'celerator™ RTMS (Real Time Multi-Strip) detector. Configuration on the incidental beam side: variable divergence slits (10 mm irradiated length), 0.04 rad Soller slits, fixed anti-scatter slit (0.50°), and 10 mm beam mask. Configuration on the diffracted beam side: variable anti-scatter slit (10 mm observed length) and 0.04 rad Soller slit. Samples were mounted flat on zero-background Si wafers.
PXRD diffractograms were acquired on a Bruker D8 Advance system (SN:2631) using Cu Ka (40 kV/40 mA) radiation and a step size of 0.03° 2θ and LynxEye detector. Configuration on the incident beam side: Goebel mirror, mirror exit slit (0.2 mm), 2.5 deg Soller slits, beam knife. Configuration on the diffracted beam side: anti-scatter slit (8 mm) and 2.5 deg. Soller slit. Samples were mounted flat on zero-background Si wafers.

cannabinoid G-protein coupled receptor CB2, sequence (P34972 whole entry): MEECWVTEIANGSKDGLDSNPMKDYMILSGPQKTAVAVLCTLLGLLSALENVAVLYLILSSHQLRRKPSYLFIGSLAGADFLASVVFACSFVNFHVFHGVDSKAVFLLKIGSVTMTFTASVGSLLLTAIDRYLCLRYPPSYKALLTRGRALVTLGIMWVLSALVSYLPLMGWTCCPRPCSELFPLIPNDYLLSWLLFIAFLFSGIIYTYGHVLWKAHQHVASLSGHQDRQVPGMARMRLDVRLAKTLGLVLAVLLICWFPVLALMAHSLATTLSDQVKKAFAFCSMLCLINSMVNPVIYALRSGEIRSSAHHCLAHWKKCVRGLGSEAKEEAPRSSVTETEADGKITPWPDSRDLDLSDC
CB1 receptor, sequence (P21554 whole entry): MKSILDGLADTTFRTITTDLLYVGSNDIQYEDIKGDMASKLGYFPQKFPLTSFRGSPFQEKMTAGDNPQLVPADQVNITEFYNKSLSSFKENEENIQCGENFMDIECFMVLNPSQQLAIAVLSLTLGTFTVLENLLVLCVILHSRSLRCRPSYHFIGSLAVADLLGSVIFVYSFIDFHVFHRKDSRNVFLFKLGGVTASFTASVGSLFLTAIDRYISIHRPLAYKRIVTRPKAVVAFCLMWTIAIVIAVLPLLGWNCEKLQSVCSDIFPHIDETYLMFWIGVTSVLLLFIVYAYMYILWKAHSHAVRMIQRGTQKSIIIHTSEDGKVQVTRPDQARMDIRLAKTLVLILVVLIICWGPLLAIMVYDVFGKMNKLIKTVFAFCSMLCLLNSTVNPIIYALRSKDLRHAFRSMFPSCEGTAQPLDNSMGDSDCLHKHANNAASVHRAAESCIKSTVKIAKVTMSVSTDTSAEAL

Which results are given for `CCCCCc1cc(O)c2c(c1)OC(C)(C)c1ccc(C)cc1-2` [cannabinol, 6,6,9-Trimethyl-3-pentyl-benzo[c]chromen-1-ol]?
binding to CB2 [1]: preferentially binds; affinity for CB2 receptor relative to THC (fold lower) ([1]; relative to THC): about 3 fold; affinity for CB1 (CB1 receptor): minimal affinity; solubility ([2]; water (1% methanol)): < 20 mg/mL; solubility ([2]; water (1% methanol), 40 °C): < 20 mg/mL; solubility ([2]; water (denatured with 1% MeOH)): < 20 mg/mL

With `CCCCCc1cc(O)c2c(c1)OC(C)(C)c1ccc(C)cc1-2.O=C(O)C1CCCN1` [Mono-L-Proline Cocrystal Group C] as the compound, how does the “physical stability by PXRD” value [3] read?
Its value is “physically stable by PXRD for three days at ambient”.
